Data published in patent US7465541B1, “Vitamin D3-responsive sequences located 5′-upstream of p27/kip 1 gene and methods of screening for pharmaceutical agents using the sequences” (Toshiyuki Sakai, priority 2000, dated 2008).

Experiments:
[1] = system: NF-I; test: Gel shift assay, NF-I binding to NF-Iwild probe, nuclear extracts of treated U937 cells; assay type: cell-based, human; settings: U937 cells treated 36 h, versus vehicle
Description: Two μg of each nuclear extract was incubated with the −555/−512wild probe (lanes 1-3), −534/−512wild probe (lanes 4-6), or NF-Iwild probe (lanes 7-12) to detect Sp1, NF-Y, and NF-I, respectively.
Nuclear extracts of U937 cells were prepared according to the procedure of Andrew and Faller (Andrews, N. C. and Faller, D. V. (1991) Nucleic Acids Res., 19, 2499). […] Gel shift assays were carried out as described by Orita et al. (Orita, T. et al. (1997) J. Biol. Chem., 272, 23216-23223). The reaction mixture for the gel shift assay (25 μl final volume) contained 20 mM Tris-HCl (pH 8.0), 100 mM KCl, 10% glycerol, 1 μg of poly(dl-dC), and 2 μg of nuclear extract. After preincubation for 15 minutes at 23° C., probe DNA (approximately 0.5 ng, 10,000 cpm) was added to the mixture, and the binding reaction was allowed to proceed at 23° C. for 20 min. The resulting product was then resolved by electrophoresis on 4% acrylamide-bisacrylamide (29:1), 0.5×TBE nondenaturing gel at 10 V/cm for 150 min. Competition analyses were performed by mixing the indicated amount of appropriate competitor DNA to the binding reaction prior to addition of nuclear extracts. In supershift experiments, antibodies against Sp1 (sc-59X; Santa Cruz), Sp3 (sc-644X; Santa Cruz), and C/EBP-α (sc-7204X; Santa Cruz) were purchased. The antibodies against NF-YA, -YB, and -YC (IgG fraction) were kindly provided by Drs. […]

[2] = system: p27^Kip1 mRNA; test: p27^Kip1 mRNA induction in U937 cells (Northern analysis); assay type: cell-based, human; settings: peaked between 24 h and 48 h, compared with 0 h
Description: Human cervical cancer cell line, C33A, human osteosarcoma cell lines, U2OS and MG63 were maintained in Dulbecco modified Eagle media containing 10% (v/v) fetal bovine serum (FBS) and cultivated in an atmosphere of 5% CO2 at 37° C. Human myelomonocytic cell line U937 (a generous gift from Dr. Y. Honma of the Saitama Cancer Research Institute, Saitama, Japan) was cultivated in Rosweli Park Memorial Institute (RPMI) 1640 media supplemented with 10% (v/v) fatal bovine serum in an atmosphere of 5% CO2.
For this purpose, a series of 5′ deletion constructs of the p27^Kip1 promoter were examined.

[3] = system: −555/−512 region of the human p27^Kip1 promoter fused to SV40 early promoter; test: Luciferase reporter assay with −555/−512 sequence upstream of SV40 early promoter in U937 cells; assay type: cell-based
Text: Furthermore, the present inventors generated constructs containing four tandem copies of the specific sequence of the p27^Kip1 promoter fused to a minimal promoter. A double-stranded 52-bp DNA fragment containing a 44-bp sequence corresponding to the −555/−512 region of the human p27^Kip1 promoter and linker sites (indicated by lower case letters below) at both ends was generated from two oligonucleotides. The top strand (5′-aggg[…]-3′) (SEQ ID NO: 5) and the bottom strand (5′-ccct[…]-3′) (SEQ ID NO: 6) were annealed, ligated, blunted and subcloned into the SmaI site upstream of the SV40 early promoter in the PicaGene Promoter Vector 2 (Nippon Gene, Tokyo, Japan) in a forward or reverse orientation to generate PGPV2[−555/−512wild]4 and PGPV2[R−555/−512wiId]4, respectively. Similarly, three types of double-stranded mutated oligonucleotides of the 44-bp sequence were also inserted into the same vector to generate the mutated constructs, PGPV2[−555/−512mSp1-1]4, PGPV2[−555/−512 mSp1-2]4, PGPV2[−555/−512mCTf]4 (see Table 1). Oligonucleotides used in Example 3-6 are shown as follows (SEQ ID NOS: 5, 6, and 18-31).
The present inventors concluded that the region between −555 and −512 relative to the translation start site (−118 and −75 relative to the transcription start site) was sufficient for vitamin D3-induced transcription of the p27^Kip1 gene. Furthermore, both the Sp1-1 site and the CCAAT box in this region were vitamin D3-responsive elements and were required for vitamin D3-induced transcription of the p27^Kip1 gene.

[4] = system: NF-YA mRNA; test: RT-PCR of NF-YA mRNA in treated U937 cells; assay type: cell-based, human; settings: 10^−7 M, time course, primers F1/R and F2/R
Description: RT-PCR of NF-YA mRNA was carried out as follows. […] RT-PCR was performed using the RNA PCR Kit Ver. 2.1 (Takara, Tokyo, Japan). The forward (F) and reverse (R) primers for NF-YA-short and -long were […] (Primer F1) (SEQ ID NO: 12), […] (primer F2) (SEQ ID NO: 13), and […] (primer R) (SEQ ID NO: 14). The forward and reverse primers for G3PDH were […] (SEQ ID NO: 15) and […] (SEQ ID NO: 16). One microgram of total RNA was used for RT-PCR. PCR was performed for 25 and 20 cycles to detect NF-YA subunits and G3PDH, respectively. PCR products were subjected to electrophoresis in a 3% agarose gel. The primers for NF-YA were designed to detect two different isoforms simultaneously and were located in regions that were conserved in the two isoforms (Li, X. Y. et al. (1992) J. Biol. Chem., 267, 8984-8990).

C=C1/C(=C\C=C2/CCC[C@]3(C)[C@@H]([C@H](C)CCCC(C)(C)O)CC[C@@H]23)C[C@@H](O)C[C@@H]1O [vitamin D3, 1,25-dihydroxyvitamin D3]
DNA binding activity of NF-I [1]: not changed | p27^Kip1 mRNA induction [2]: approximately 4 fold | response to vitamin D3, one copy of the 44 bp fragment [3]: did not respond | stimulatory effect, PGPV2[−555/−512mCTF]4 ([3]; 40 h, 10^−7 M): abolished any stimulatory effect | stimulatory effect, PGPV2[−555/−512 mSp1-1]4 ([3]; 40 h, 10^−7 M): abolished any stimulatory effect | response to vitamin D3, four copies of the 44 bp fragment (PGPV2[−555/−512wild]4) ([3]; 40 h, 10^−7 M, orientation-dependent): conferred significant response | luciferase activity, PGPV2[−555/−512 mSp1-2]4 ([3]; 40 h, 10^−7 M, similar to p27PF and PGPV2[−555/−512wild]4): activated | long form of NF-YA mRNA [4]: decreased gradually
